The source of these data is patent US20190008864A1, “PHARMACEUTICAL COMPOSITION CONTAINING GPR119 LIGAND AS EFFECTIVE INGREDIENT FOR PREVENTING OR TREATING NON-ALCOHOLIC STEATOHEPATITIS” (PHARMEDIX.CO., LTD., priority 2014, published 2019).

One test deals with SREBP-1c. The test can be described thus: SREBP-1C expression in HepG2 under high glucose/insulin with GPR119 ligand plus AMPK or PKA inhibitor. It counts as cell-based, human. Here is the method:
(§1) Sodium dodecyl sulfate-polyacrylamide gel electrophoresis (SDS-PAGE) was carried out by means of a gel electrophoresis device (Mighty Small SE 250, Hoefer Scientific Instruments, San Francisco) according to a method by Laemmli (UK, Nature 227, 680-685, 1970). Each of cell lysate fractions was diluted with a buffer solution for sample dilution [63 mM Tris (pH. 6.8), 10% glycerol, 2% SDS, 0.0013% bromophenol blue, and 5% β-mercaptoethanol], and then electrophoresed on a 8% or 10% gel in an electrode buffer solution (1 l of the solution contained 15 g of Tris, 72 g of glycerin, and 5 g of SDS). […] Whether total protein contents in samples are the same is determined using anti-β-actin and anti-LaminA/C antibodies. Changes in protein expression amounts were determined by measuring the intensities of chemiluminescence signals on the blot by means of densitometry. […] Each lane was calculated using AlphaEase™ version 5.5 software and background intensity was removed from the calculated values. […]
An experiment therefor was performed as follows. […] Protein expression change was measured using the western blotting method of the method D.

Test [1] has as its system fatty liver model induced by a high-fat diet. The test can be described thus: Fatty liver model induced by high-fat diet. It counts as in vivo, C57BL/6J mice. Particulars: animal models fed with a high-fat diet. From the text: In the present invention, a high fat diet (HFD: 60% fat calories, Research diets, D12492, US) was used as an obesity induction diet.
Six-week-old male C57BL/6J mice (Central Lab. Animal Inc., Seoul, Korea) were acclimated to an experimental environment for one week while being fed solid food, and then randomly divided into a control group and an experimental group for a high-fat diet using a randomized block design. The animal groups were fed for 12 weeks, and thus, fatty liver animal models were established. Fatty liver development was determined according to blood biochemical and histochemical analysis methods. The mice were orally fed with the high-fat diet only for six weeks, and in combination with a GPR119 ligand (10 mg/kg) suspended in 40% PEG400 once a day for five days every week. Choline-deficient, amino acid-fixed high-fat diet steatohepatitis models were prepared by feeding six-week-old male C57BL/6J mice (Central Lab. Animal Inc., Seoul) with a diet containing 60 kcal fat and 0.1% methionine for four weeks. After terminating the experiment, experimental animals fasted for 12 hours or more. Subsequently, blood, liver, and adipose tissues in intestines (epididymal fat, kidney-surrounding fat) were collected from the animals that had been anesthetized with diethyl ether and then washed with a 0.1 M phosphate buffered saline (pH 7.4), followed by being weighed. Blood collected from abdominal aortas was centrifuged at 3000 rpm for 20 minutes using SST tubes to separate serum.
A total cholesterol concentration and a total glucose concentration in serum from each of the aforementioned experimental animals raised for 12 weeks were measured as follows. Each of the total cholesterol concentration and the total glucose concentration in serum was measured twice by means of a commercial measurement kit (Bio Clinical Systems). The amount of alanine aminotransferase (ALT) in blood used as a liver function index was measured by means of a commercial analysis kit (Bio Clinical Systems, Korea).
The collected liver tissues were fixed with a 10% neutral formalin solution and then subjected to a common fixation procedure and dehydration process, followed by embedding the same in paraffin. The embedded tissues were sectioned to a thickness of 4 μm and stained with H&E. The stained tissues were observed by means of an optical microscope.
A predetermined amount of each of the liver tissues was homogenized in liquid nitrogen and a cell lysis buffer in a mortar, and then a lysed tissue solution was transferred to a new tube, followed by vortexing. […] A middle layer of the centrifuged solution was collected and then subjected to protein quantification by the Bradford assay. […] Expression changes of FAS and SREBP-1c proteins were measured by western blotting. […]

For test [2], the system named is mouse liver tissue and hepatocyte line. The test can be described thus: Summary statement: mouse liver tissue and hepatocyte line treated with the two GPR119 ligands. It counts as cell-based.
The next test concerns SCD-1 mRNA. The test can be described thus: SCD-1 mRNA expression after T0901317 treatment, HepG2 (real time PCR). Particulars: 10 μM T0901317 alone. It counts as cell-based, human. Here is the method: (§2) A 6-well plate was inoculated with HepG2 (ATCC, US), as a human hepatocyte line, and cultured until confluence in a DMEM medium containing 1% penicillin-streptomycin (Hyclone, US) and 10% fetal bovine serum (Hyclone, US) in a 5% CO2 incubator at 37° C. The medium containing 10% fetal bovine serum of the hepatocyte line grown to confluence was replaced by a medium not containing FBS. The cell line was additionally cultured for 18 hours and used as a sample for an experiment.
(§3) 1 ml of a TRIzol solution was added to each of cell samples to lyse the cells. Subsequently, centrifugation was carried out at 4° C. and 12,000×g for 10 minutes. […]
(§4) A supernatant was transferred to a new tube and then isopropanol was added thereto in the same amount as the supernatant. […] The concentration of an extracted RNA sample was measured at wavelengths of 260 nm and 280 nm by means of a UV/VIS spectrum analyzer (Nanodrop, Thermo, US) and cDNAs were synthesized therefrom using an RT kit. […]
(§5) A medium containing the GPR119 ligand (MBX-2982, GSK-1292263A) was added to a human hepatocyte line (HepG2) cultured as in the method C and, 30 minutes later, the cell line was treated with 10 μM T0901317 for nine hours. […] To investigate mRNA expression change in SCD-1 and FAS, RNAs were isolated and cDNAs were synthesized therefrom as in the method E. mRNA expression levels were measured using real time-PCR as in the method F.

Test [3] has as its system SREBP-1c protein. The test can be described thus: SREBP-1c expression after T0901317 treatment, primary hepatocytes (western blot). It counts as cell-based, mouse. Particulars: 10 μM T0901317 alone, nine hours, compared to no treatment. On the technique in general: Immunoblotting shows a protein as a band on a membrane.
Method: Liver cells were collected from male C57BL/6 mice (Central Lab. Animal Inc., Seoul) according to a method by Seglen et al. (Exp Cell Res., 82, pp 391-398, 1973). Each C57BL/6 mouse was anesthetized and then the abdomen thereof was incised. Subsequently, the hepatic portal vein was intubated and a gas mixture of 5% CO2 and 95% O2 was insufflated thereinto. A Ca^2+ and Mg^2+-free Hank's balanced salt solution at 37° C. was flowed into the tube to remove blood in the liver. Subsequently, a 0.1% collagenase type IV (Sigma, US) solution was flowed thereinto. The liver tissue was removed from the body, and then prepared into a hepatocyte suspension. The prepared hepatocyte suspension was centrifuged at 50×g for two minutes. […]
Sodium dodecyl sulfate-polyacrylamide gel electrophoresis (SDS-PAGE) was carried out by means of a gel electrophoresis device (Mighty Small SE 250, Hoefer Scientific Instruments, San Francisco) according to a method by Laemmli (UK, Nature 227, 680-685, 1970). […] Whether total protein contents in samples are the same is determined using anti-β-actin and anti-LaminA/C antibodies. Changes in protein expression amounts were determined by measuring the intensities of chemiluminescence signals on the blot by means of densitometry. […] Each lane was calculated using AlphaEase™ version 5.5 software and background intensity was removed from the calculated values. […]
Test [4] has as its system SREBP-1c protein. The test can be described thus: SREBP-1c expression after T0901317 treatment, HepG2 (western blot). Particulars: 10 μM T0901317 alone, nine hours, compared to no treatment. It counts as cell-based, human. The protocol:
as §2
as §1, with “1970).” for “1970). Each of cell lysate fractions was diluted with a buffer solution for sample dilution [63 mM Tris (pH. 6.8), 10% glycerol, 2% SDS, 0.0013% bromophenol blue, and 5% β-mercaptoethanol], and then electrophoresed on a 8% or 10% gel in an electrode buffer solution (1 l of the solution contained 15 g of Tris, 72 g of glycerin, and 5 g of SDS).”

Another test relates to FAS mRNA. The test can be described thus: FAS mRNA expression after T0901317 treatment, HepG2 (real time PCR). It counts as cell-based, human. Particulars: 10 μM T0901317 alone. The protocol:
as §2, §3, §4, §5
Background: Quantitative PCR measures a nucleic acid by following its amplification.

For the compound `O=S(=O)(NCCNC/C=C/c1ccc(Br)cc1)c1cccc2cnccc12` [H-89], the “function of the GPR119 ligand affecting SREBP-1C upon PKA inhibitor treatment” value in the test with SREBP-1c (3 μM GPR119 ligand plus H-89) is recorded as “not affected”.
`CC(C)c1noc(N2CCC(COc3ccc(-c4ccc(S(C)(=O)=O)cc4)nc3)CC2)n1` [GSK1292263, 3-isopropyl-5-(4-(((6-(4-(methylsulfonyl)phenyl)pyridin-3-yl)oxy)methyl)piperidin-1-yl)-1,2,4-oxadiazole]: the fatty liver development entry in test [1] is “completely inhibited”. In addition, in test [2], the “activity of SREBP-1c” value is “inhibited”, the “expression of GPR119” value is “increased”, the “expression of acetyl CoA carboxylase (ACC)” value was “inhibited” and the “expression of fatty acid synthase (FAS)” value is given as “inhibited”. For the same compound, in test [2], the “expression of stearoyl-CoA desaturase (SCD)” value is “inhibited”.
Turning to `O=S(=O)(c1ccccc1)N(CC(F)(F)F)c1ccc(C(O)(C(F)(F)F)C(F)(F)F)cc1` [T0901317, N-(2,2,2-Trifluoroethyl)-N-[4-[2,2,2-trifluoro-1-hydroxy-1-(trifluoromethyl)ethyl]phenyl]benzenesulfonamide], the “mRNA expression level of SCD-1” value in the test with SCD-1 mRNA is listed as “increased”. Also, the “expression level of SREBP-1c” value in the test with SREBP-1c protein [3] and in the test with SREBP-1c protein [4] was “greatly increases” in each case. The “mRNA expression level of FAS” value in the test with FAS mRNA is listed as “increased”.
With `c1cc(-c2cnn3cc(-c4ccc(OCCN5CCCCC5)cc4)cnc23)ccn1` [Compound C], the “SREBP-1C expression inhibition due to MBX2982 upon AMPK inhibitor treatment” value with SREBP-1c (3 μM MBX2982 plus Compound C) was “recovered”.
